# Molecular target: T1, wtAR (Homo sapiens, UniProt P10275)
# T1 construct: expressed in transfected cells; host or cells: PC-3 cells (A3); M12 cells (A8)
# T1 sequence (P10275 1-920): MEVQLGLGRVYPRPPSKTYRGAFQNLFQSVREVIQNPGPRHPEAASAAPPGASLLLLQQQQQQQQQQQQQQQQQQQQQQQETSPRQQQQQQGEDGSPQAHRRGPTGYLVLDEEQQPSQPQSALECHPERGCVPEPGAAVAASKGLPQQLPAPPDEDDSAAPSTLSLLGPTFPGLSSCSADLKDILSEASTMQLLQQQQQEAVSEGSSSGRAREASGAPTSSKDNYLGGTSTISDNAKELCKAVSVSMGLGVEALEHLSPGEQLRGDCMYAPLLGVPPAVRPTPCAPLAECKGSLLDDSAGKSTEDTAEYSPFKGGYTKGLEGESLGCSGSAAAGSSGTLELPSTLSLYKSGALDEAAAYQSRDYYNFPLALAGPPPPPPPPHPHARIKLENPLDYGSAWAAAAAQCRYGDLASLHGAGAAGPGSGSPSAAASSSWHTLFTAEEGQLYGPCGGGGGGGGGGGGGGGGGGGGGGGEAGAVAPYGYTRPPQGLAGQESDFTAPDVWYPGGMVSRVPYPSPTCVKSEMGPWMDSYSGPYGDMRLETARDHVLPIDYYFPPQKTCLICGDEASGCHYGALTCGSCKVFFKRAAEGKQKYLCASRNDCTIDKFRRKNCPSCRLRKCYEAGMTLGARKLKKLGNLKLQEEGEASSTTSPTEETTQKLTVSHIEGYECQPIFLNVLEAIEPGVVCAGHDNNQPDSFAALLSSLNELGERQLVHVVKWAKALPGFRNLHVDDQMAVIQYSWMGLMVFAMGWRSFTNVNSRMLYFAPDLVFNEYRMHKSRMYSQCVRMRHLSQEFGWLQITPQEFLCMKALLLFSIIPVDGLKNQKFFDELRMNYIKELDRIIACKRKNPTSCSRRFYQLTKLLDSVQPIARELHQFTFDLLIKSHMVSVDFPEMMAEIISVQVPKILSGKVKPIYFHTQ
# Assay: Rat probasin-luciferase reporter in M12 cells with ARwt
# Assay type: cell-based
# Details: 100 nM peptidomimetic, 48 h
# Description: FIG. 5. Effect of T6 on basal level of ARE expression in M12 cells. M12 cells were transiently transfected with the rat probasin-luciferase reporter and either ARwt or ARv7. Cells were maintained for 48 h without (EtOH) and in the presence of 100 nM of peptidomimetic or volume equivalent of vehicle (DMSO) control or 10 μM of MDV3100. Luciferase assay results are shown.
smiles,measurement,value
CC(C)COc1cc(C(N)=O)ccc1NC(=O)c1ccc(NC(=O)c2ccc([N+](=O)[O-])c(OCCc3ccc4ccccc4c3)c2)c(OCC(C)C)c1 [T6],expression of rat probasin reporter in M12 cells driven by wtAR,able to independently knock down
